# Columns and labels:
# [1] = tested on: MCF-7 (HTB-22, low metastatic breast adenocarcinoma) cells; assay: Cell proliferation assay, MCF-7 low metastatic breast adenocarcinoma cells; type: cell-based, human; conditions: another experiment; only at high doses effective
# [2] = Stability of activity after dissolving in solvent
# [3] = tested on: MCF-7 and MDA-MB-231 cells; assay: Anticancer activity in vitro, summary statements for breast cancer cells; type: cell-based, human; conditions: MCF-7 and MDA-MB-231 in vitro
# [4] = tested on: MCF12A (CRL#10782, normal mammary epithelial) cells; assay: Cell proliferation assay, MCF12A normal mammary epithelial cells; conditions: another experiment
substance,measurement,setting,value
(−)-epigallocatechin gallate [EGCG],dose at which effective on MCF-7,[1],9.2 µg/mL
same,time to loss of activity,[2],≤ 1 h
same,dose at which active / effective,[3],1 to 40 µg/mL
same,inhibition of normal MCF-12A cells (in words),[4]; 5.0 μg/ml,inhibited
same,inhibition of normal MCF-12A cells (in words),[4]; 40 μg/ml,inhibited
